Results published in PubChem BioAssay AID1963446 (Molecular Pharmacology Branch, DTP, NCI, 2024).

Tested on: 993429-296-R-J1-PDC complex spheroid growth, percent test/control
Assay: Anticancer human tumor 993429-296-R-J1-PDC patient-derived uterine sarcoma cell line growth inhibition [Asc]
Conditions: for IC50: curve of first compound; for viability, T/C: stronger effect = lower value
In short: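 Tumor cells were grown as complex spheroids with human endothelial cells (HUVEC) and human mesenchymal stem cells as stroma. Agents were tested alone and in combination, in half-log steps down from the clinical Cmax, or from 10 microM where Cmax was unknown.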

[1] = second compound 0.01 µM, first compound 0.0316 µM
[2] = second compound 0.01 µM, first compound 0.1 µM
[3] = second compound 0.0316 µM, first compound 0.0316 µM
[4] = second compound 0.0316 µM, first compound 0.1 µM
[5] = second compound 0.1 µM, first compound 0.0316 µM
[6] = second compound 0.1 µM, first compound 0.1 µM
[7] = second compound 0.316 µM, first compound 0.0316 µM
[8] = second compound 0.316 µM, first compound 0.1 µM
[9] = second compound 1 µM, first compound 0.0316 µM
[10] = second compound 1 µM, first compound 0.1 µM
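Further: spheroids exposed to compounds for seven days.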

Compound: Cc1nc(N2CCC3(CC2)COC(C)C3N)c(CO)nc1Sc1ccnc(N)c1Cl (stereo not given) + CCN1C(C(=O)NC23CCC(C(=O)O)(CC2)CC3)C(c2cccc(Cl)c2F)C2(C(=O)Nc3cc(Cl)ccc32)C12CCCCC2
- IC50 (second compound 0.03 µM): 0.211 µM
- IC50 (second compound 0.0949 µM): 0.159 µM
- IC50 (second compound 0.3 µM): 0.176 µM
- IC50 (second compound 0.949 µM): 0.144 µM
- IC50 (second compound 3 µM): 0.104 µM
- viability, T/C (second compound 0.03 µM, first compound 0.00949 µM): 89.3%
- viability, T/C (second compound 0.03 µM, first compound 0.03 µM): 86.2%
- viability, T/C (second compound 0.03 µM, first compound 0.0949 µM): 68.7%
- viability, T/C (second compound 0.03 µM, first compound 0.3 µM): 41.5%
- viability, T/C (second compound 0.03 µM, first compound 0.949 µM): 33.3%
- viability, T/C (second compound 0.03 µM, first compound 3 µM): 29.6%
- viability, T/C (second compound 0.0949 µM, first compound 0.00949 µM): 92.5%
- viability, T/C (second compound 0.0949 µM, first compound 0.03 µM): 71.7%
- viability, T/C (second compound 0.0949 µM, first compound 0.0949 µM): 65.2%
- viability, T/C (second compound 0.0949 µM, first compound 0.3 µM): 35.3%
- viability, T/C (second compound 0.0949 µM, first compound 0.949 µM): 30.2%
- viability, T/C (second compound 0.0949 µM, first compound 3 µM): 29.2%
- viability, T/C (second compound 0.3 µM, first compound 0.00949 µM): 87.7%
- viability, T/C (second compound 0.3 µM, first compound 0.03 µM): 79.8%
- viability, T/C (second compound 0.3 µM, first compound 0.0949 µM): 59%
- viability, T/C (second compound 0.3 µM, first compound 0.3 µM): 42.6%
- viability, T/C (second compound 0.3 µM, first compound 0.949 µM): 29.2%
- viability, T/C (second compound 0.3 µM, first compound 3 µM): 26.8%
- viability, T/C (second compound 0.949 µM, first compound 0.00949 µM): 86.7%
- viability, T/C (second compound 0.949 µM, first compound 0.03 µM): 68.5%
- viability, T/C (second compound 0.949 µM, first compound 0.0949 µM): 55.9%
- viability, T/C (second compound 0.949 µM, first compound 0.3 µM): 43.1%
- viability, T/C (second compound 0.949 µM, first compound 0.949 µM): 27.6%
- viability, T/C (second compound 0.949 µM, first compound 3 µM): 22.9%
- viability, T/C (second compound 3 µM, first compound 0.00949 µM): 75.2%
- viability, T/C (second compound 3 µM, first compound 0.03 µM): 69.9%
- viability, T/C (second compound 3 µM, first compound 0.0949 µM): 50.1%
- viability, T/C (second compound 3 µM, first compound 0.3 µM): 34%
- viability, T/C (second compound 3 µM, first compound 0.949 µM): 28.8%
- viability, T/C (second compound 3 µM, first compound 3 µM): 21.6%

Compound: Cn1ncnc1[C@H]1c2n[nH]c(=O)c3cc(F)cc(c23)N[C@@H]1c1ccc(F)cc1 + CNC(C)C(=O)NC1CN(S(=O)(=O)c2cccc(S(=O)(=O)N3CCC4CCC(C(=O)NC(c5ccccc5)c5ccccc5)N4C(=O)C(NC(=O)C(C)NC)C3)c2)CCC2CCC(C(=O)NC(c3ccccc3)c3ccccc3)N2C1=O
- IC50 (second compound 0.01 µM): 0.00414 µM
- IC50 (second compound 0.0316 µM): 0.00799 µM
- IC50 (second compound 0.1 µM): 0.00394 µM
- IC50 (second compound 0.316 µM): 0.00581 µM
- IC50 (second compound 1 µM): < 0.000316 µM
- viability, T/C (second compound 0.01 µM, first compound 0.000316 µM): 75.9%
- viability, T/C (second compound 0.01 µM, first compound 0.001 µM): 54.9%
- viability, T/C (second compound 0.01 µM, first compound 0.00316 µM): 52.7%
- viability, T/C (second compound 0.01 µM, first compound 0.01 µM): 47%
- viability, T/C [1]: 32.6%
- viability, T/C [2]: 21.3%
- viability, T/C (second compound 0.0316 µM, first compound 0.000316 µM): 60.4%
- viability, T/C (second compound 0.0316 µM, first compound 0.001 µM): 69.1%
- viability, T/C (second compound 0.0316 µM, first compound 0.00316 µM): 54.1%
- viability, T/C (second compound 0.0316 µM, first compound 0.01 µM): 48.9%
- viability, T/C [3]: 35.9%
- viability, T/C [4]: 26.5%
- viability, T/C (second compound 0.1 µM, first compound 0.000316 µM): 52%
- viability, T/C (second compound 0.1 µM, first compound 0.001 µM): 52.7%
- viability, T/C (second compound 0.1 µM, first compound 0.00316 µM): 51.2%
- viability, T/C (second compound 0.1 µM, first compound 0.01 µM): 45.3%
- viability, T/C [5]: 32.5%
- viability, T/C [6]: 23.2%
- viability, T/C (second compound 0.316 µM, first compound 0.000316 µM): 56.5%
- viability, T/C (second compound 0.316 µM, first compound 0.001 µM): 60.7%
- viability, T/C (second compound 0.316 µM, first compound 0.00316 µM): 54.8%
- viability, T/C (second compound 0.316 µM, first compound 0.01 µM): 44.4%
- viability, T/C [7]: 17.5%
- viability, T/C [8]: 13.7%
- viability, T/C (second compound 1 µM, first compound 0.000316 µM): 50.6%
- viability, T/C (second compound 1 µM, first compound 0.001 µM): 45.7%
- viability, T/C (second compound 1 µM, first compound 0.00316 µM): 46.9%
- viability, T/C (second compound 1 µM, first compound 0.01 µM): 39.4%
- viability, T/C [9]: 21.6%
- viability, T/C [10]: 10.9%

Compound: O=C(c1cc(Cc2n[nH]c(=O)c3ccccc23)ccc1F)N1CCN(C(=O)C2CC2)CC1 + CNC(C)C(=O)NC1CN(S(=O)(=O)c2cccc(S(=O)(=O)N3CCC4CCC(C(=O)NC(c5ccccc5)c5ccccc5)N4C(=O)C(NC(=O)C(C)NC)C3)c2)CCC2CCC(C(=O)NC(c3ccccc3)c3ccccc3)N2C1=O
- IC50 (second compound 0.01 µM): 2.08 µM
- IC50 (second compound 0.0316 µM): 1.74 µM
- IC50 (second compound 0.1 µM): 1.11 µM
- IC50 (second compound 0.316 µM): 0.406 µM
- IC50 (second compound 1 µM): 0.903 µM
- viability, T/C [1]: 63.2%
- viability, T/C [2]: 73.3%
- viability, T/C (second compound 0.01 µM, first compound 0.316 µM): 64.6%
- viability, T/C (second compound 0.01 µM, first compound 1 µM): 64.5%
- viability, T/C (second compound 0.01 µM, first compound 3.16 µM): 41.8%
- viability, T/C (second compound 0.01 µM, first compound 10 µM): 17.7%
- viability, T/C [3]: 61.5%
- viability, T/C [4]: 56.2%
- viability, T/C (second compound 0.0316 µM, first compound 0.316 µM): 59.5%
- viability, T/C (second compound 0.0316 µM, first compound 1 µM): 59.6%
- viability, T/C (second compound 0.0316 µM, first compound 3.16 µM): 40%
- viability, T/C (second compound 0.0316 µM, first compound 10 µM): 12.4%
- viability, T/C [5]: 53.4%
- viability, T/C [6]: 63.5%
- viability, T/C (second compound 0.1 µM, first compound 0.316 µM): 54.8%
- viability, T/C (second compound 0.1 µM, first compound 1 µM): 51.4%
- viability, T/C (second compound 0.1 µM, first compound 3.16 µM): 36.3%
- viability, T/C (second compound 0.1 µM, first compound 10 µM): 11.6%
- viability, T/C [7]: 60.2%
- viability, T/C [8]: 55.9%
- viability, T/C (second compound 0.316 µM, first compound 0.316 µM): 43.6%
- viability, T/C (second compound 0.316 µM, first compound 1 µM): 45.5%
- viability, T/C (second compound 0.316 µM, first compound 3.16 µM): 39%
- viability, T/C (second compound 0.316 µM, first compound 10 µM): 14.1%
- viability, T/C [9]: 53.2%
- viability, T/C [10]: 48%
- viability, T/C (second compound 1 µM, first compound 0.316 µM): 59.5%
- viability, T/C (second compound 1 µM, first compound 1 µM): 48.7%
- viability, T/C (second compound 1 µM, first compound 3.16 µM): 28.1%
- viability, T/C (second compound 1 µM, first compound 10 µM): 10.7%
